Source: article PMC9776291 (Biomolecules, 2022)
pIC50: −log10 of the molar value.

Legend:
Assay type in all cases: cell-based
[1] = biological target: T1, GLUT6 (Homo sapiens, UniProt Q9UGQ3); assay: [3H]-2-deoxyglucose uptake in GLUT-expressing HEK293 cells
T1 construct: gene SLC2A6
T1 sequence (Q9UGQ3 1-507): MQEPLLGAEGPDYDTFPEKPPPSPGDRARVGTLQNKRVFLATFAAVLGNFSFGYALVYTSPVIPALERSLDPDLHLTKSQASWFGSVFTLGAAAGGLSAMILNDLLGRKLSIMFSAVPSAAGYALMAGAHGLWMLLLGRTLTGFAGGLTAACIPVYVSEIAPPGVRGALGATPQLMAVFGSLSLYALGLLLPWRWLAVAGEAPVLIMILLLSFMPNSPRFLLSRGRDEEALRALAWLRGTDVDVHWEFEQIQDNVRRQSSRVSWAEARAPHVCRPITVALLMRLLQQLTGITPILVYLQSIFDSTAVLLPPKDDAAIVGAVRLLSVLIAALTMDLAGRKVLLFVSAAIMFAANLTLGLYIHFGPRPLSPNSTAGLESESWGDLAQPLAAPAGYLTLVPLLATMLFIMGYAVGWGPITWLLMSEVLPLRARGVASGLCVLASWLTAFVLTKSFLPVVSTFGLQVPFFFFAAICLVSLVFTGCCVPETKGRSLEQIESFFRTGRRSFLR

[2] = biological target: T2, GLUT10 (Homo sapiens, UniProt O95528); assay: as above
T2 construct: gene SLC2A10
T2 sequence (O95528 1-541): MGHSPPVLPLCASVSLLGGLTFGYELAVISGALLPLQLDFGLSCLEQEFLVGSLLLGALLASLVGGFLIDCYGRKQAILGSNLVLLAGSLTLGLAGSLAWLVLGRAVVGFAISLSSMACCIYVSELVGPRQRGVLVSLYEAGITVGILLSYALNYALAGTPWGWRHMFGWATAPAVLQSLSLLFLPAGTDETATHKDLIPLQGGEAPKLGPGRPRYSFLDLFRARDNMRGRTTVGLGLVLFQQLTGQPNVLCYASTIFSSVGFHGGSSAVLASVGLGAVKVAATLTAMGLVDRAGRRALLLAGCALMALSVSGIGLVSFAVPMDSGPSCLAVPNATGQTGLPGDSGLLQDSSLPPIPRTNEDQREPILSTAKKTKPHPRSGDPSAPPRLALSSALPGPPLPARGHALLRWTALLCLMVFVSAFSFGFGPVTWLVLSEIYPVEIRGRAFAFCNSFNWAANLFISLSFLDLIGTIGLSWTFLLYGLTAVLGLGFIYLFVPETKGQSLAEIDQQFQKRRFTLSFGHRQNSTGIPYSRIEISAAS

[3] = biological target: T3, GLUT4 (Homo sapiens, UniProt P14672); assay: as above
T3 construct: gene SLC2A4
T3 sequence (P14672 1-509): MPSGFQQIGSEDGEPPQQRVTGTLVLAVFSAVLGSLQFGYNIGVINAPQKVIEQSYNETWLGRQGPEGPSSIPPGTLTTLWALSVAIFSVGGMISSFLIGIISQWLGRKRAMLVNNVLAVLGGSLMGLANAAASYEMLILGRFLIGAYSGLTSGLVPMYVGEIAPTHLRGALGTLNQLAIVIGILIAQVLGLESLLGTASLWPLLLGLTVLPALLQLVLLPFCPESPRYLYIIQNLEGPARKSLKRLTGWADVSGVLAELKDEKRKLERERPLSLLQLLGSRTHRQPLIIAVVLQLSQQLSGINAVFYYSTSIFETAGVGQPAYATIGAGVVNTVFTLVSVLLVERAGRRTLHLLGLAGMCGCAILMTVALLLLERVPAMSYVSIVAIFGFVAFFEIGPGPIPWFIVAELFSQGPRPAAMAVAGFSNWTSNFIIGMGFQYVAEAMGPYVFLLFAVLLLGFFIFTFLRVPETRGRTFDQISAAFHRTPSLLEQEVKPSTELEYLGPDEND

[4] = biological target: T4, GLUT2 (Homo sapiens, UniProt P11168); assay: as above; settings: 50 µM 2-deoxyglucose, 4 min; pH 7.3; labelled compound
T4 construct: gene SLC2A2
T4 sequence (P11168 1-524): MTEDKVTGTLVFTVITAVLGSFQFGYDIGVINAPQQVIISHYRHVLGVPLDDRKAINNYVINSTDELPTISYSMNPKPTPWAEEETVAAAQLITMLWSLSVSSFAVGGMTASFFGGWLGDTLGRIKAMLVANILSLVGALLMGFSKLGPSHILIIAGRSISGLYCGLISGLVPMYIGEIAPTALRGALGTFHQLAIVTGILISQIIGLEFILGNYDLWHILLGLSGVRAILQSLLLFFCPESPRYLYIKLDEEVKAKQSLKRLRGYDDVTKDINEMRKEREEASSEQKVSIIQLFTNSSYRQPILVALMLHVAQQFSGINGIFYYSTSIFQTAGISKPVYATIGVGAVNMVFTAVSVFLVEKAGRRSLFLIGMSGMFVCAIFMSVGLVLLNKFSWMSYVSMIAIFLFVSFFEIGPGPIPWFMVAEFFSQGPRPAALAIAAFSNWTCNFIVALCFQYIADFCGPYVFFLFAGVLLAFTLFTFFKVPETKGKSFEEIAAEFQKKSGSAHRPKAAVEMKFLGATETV

[5] = biological target: T5, GLUT5 (Homo sapiens, UniProt P22732); assay: [3H]-D-fructose uptake in GLUT-expressing HEK293 cells; settings: 4 µM fructose, 2 min; pH 7.3; labelled compound
T5 construct: gene SLC2A5
T5 sequence (P22732 1-501): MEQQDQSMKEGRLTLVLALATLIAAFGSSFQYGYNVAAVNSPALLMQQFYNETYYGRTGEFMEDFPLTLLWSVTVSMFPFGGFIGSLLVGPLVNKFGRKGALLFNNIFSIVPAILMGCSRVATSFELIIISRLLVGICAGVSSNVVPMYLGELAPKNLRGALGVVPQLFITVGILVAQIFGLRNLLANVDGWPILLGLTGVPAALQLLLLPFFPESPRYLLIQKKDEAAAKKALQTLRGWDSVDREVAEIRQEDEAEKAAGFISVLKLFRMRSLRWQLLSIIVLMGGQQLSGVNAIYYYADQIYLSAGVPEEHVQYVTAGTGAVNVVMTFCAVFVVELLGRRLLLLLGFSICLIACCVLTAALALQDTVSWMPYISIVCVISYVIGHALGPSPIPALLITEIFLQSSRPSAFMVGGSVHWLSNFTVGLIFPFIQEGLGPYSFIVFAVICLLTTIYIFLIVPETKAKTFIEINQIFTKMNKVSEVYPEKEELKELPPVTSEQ

## Cc1c(NC(=O)c2cc(C(N)=O)nc3cc(F)ccc23)c(C(F)(F)F)nn1Cc1ccc(C#N)cc1 [BAY-876]
[1]
  pIC50: 5.66
[2]
  pIC50: 5.77
[3]
  pIC50: 5.27

## OC[C@H]1OC(O)C[C@@H](O)[C@@H]1O (some centres unmarked) [[^3H]-2-deoxyglucose]
[4]
  [3H]-2-deoxyglucose uptake in GLUT-expressing HEK293 cells: HEK293 cells that stably express human GLUT transporters were incubated

## OCC1(O)OC[C@@H](O)[C@@H](O)[C@@H]1O (stereo partly drawn) [[^3H]-D-fructose]
[5]
  [3H]-D-fructose uptake in GLUT-expressing HEK293 cells: Fructose transport through GLUT5 was not impaired by BAY-876
